Drawing on patent US12673930B2, “Thiophene HSD17B13 inhibitors and uses thereof” (INIPHARM, INC., priority 2020, dated 2026), this text covers IC50 for 24 molecules.

Molecules are shown by their SMILES.

The target of one experiment is T1, HSD17B13 enzyme (Homo sapiens, UniProt Q7Z5P4).
T1 construct: His; made in house; host or cells: E. coli
T1 sequence (Q7Z5P4 20-300): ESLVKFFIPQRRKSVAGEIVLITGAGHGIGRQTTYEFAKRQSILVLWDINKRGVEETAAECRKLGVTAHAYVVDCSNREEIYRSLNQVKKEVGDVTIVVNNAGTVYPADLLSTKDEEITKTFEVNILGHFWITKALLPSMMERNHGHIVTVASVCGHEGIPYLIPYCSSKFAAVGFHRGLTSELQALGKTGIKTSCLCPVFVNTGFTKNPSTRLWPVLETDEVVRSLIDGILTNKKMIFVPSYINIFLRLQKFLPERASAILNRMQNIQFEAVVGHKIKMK
Put plainly: NADH detection assay (fluorescence based Leukotriene B3 (LTB3) assay) for HSD17B13 activity. Format: biochemical. Conditions: substrate 25 μM LTB3, 3 mM NAD+, 125 nM HSD17B13 enzyme, 1 hour at 26.5° C. As to the method: The fluorescence based Leukotriene B3 (LTB3) assay monitors the fluorescence of NADH, which is generated from NAD+ during the dehydrogenation of the substrate LTB3. The reactions were performed in a 384-well plates (Greiner; #655076) in a 20 μl reaction volume containing the following reagents (final concentrations): 25 μM LTB3 (Cayman; #20109); 3 mM NAD^+ (Sigma; #N0623); 125 nM HSD17B13 enzyme (in-house; E. coli expressed His-tagged, purified, soluble protein); 1 M potassium phosphate buffer, pH 7.4; and 1% DMSO. Reactions were initiated by co-addition of NAD+ and enzyme, and monitored for 1 hour at 26.5° C. Generation of NADH was measured as the fluorescence signal (Excitation at 340 nm and Emission at 445 nm) at 1 hour minus the baseline fluorescence at t=0. Fluorescence signals in the absence of LTB3 (negative control values), were subtracted from all values so that the results reflected substrate-dependent production of NADH. NADH standards were included to allow the conversion of relative fluorescence units into rates of enzyme activity. Enzyme activity in the presence of test compounds was expressed as a percentage of the uninhibited enzyme activity, and plotted versus inhibitor concentration. Non-linear regression was performed using a four-parameter logistic model and Microsoft Excel Solver® software. Ten concentrations of inhibitor were tested in duplicate (in the range of 30 μM-2.5 nM). Two independent concentration response assays were performed and the geometric mean is reported, =/−the SEM.
Usually IC50 stands for the midpoint of a concentration-inhibition curve. Low values mean greater potency, high ones weaker potency. For `COc1ccccc1CCNC(=O)c1sccc1NC(=O)c1ccc(O)c(Cl)c1` [Example 1, 3-(3-chloro-4-hydroxybenzamido)-N-(2-methoxyphenethyl)thiophene-2-carboxamide], the IC50 was not above 1 µM.

For `CC(C)CNC(=O)c1sccc1NC(=O)c1ccc(O)c(Cl)c1` [Example 2, 3-(3-chloro-4-hydroxybenzamido)-N-isobutylthiophene-2-carboxamide], the IC50 was not above 1 µM.

Regarding `COc1ccccc1CCNC(=O)c1sccc1NC(=O)c1ccc(OCC(=O)O)c(Cl)c1` [Example 11, 2-(2-chloro-4-((2-((2-methoxyphenethyl)carbamoyl)thiophen-3-yl)carbamoyl)phenoxy)acetic acid], the IC50 was more than 10 µM.

On to `COc1ccccc1CCNC(=O)c1sccc1NC(=O)c1cnc(O)c(Cl)c1` [Example 21, 5-chloro-6-hydroxy-N-(2-((2-methoxyphenethyl)carbamoyl)thiophen-3-yl)nicotinamide], for which the IC50 was more than 10 µM.

On to `COc1ccccc1CCNC(=O)c1sccc1NC(=O)c1ccc(CCC(=O)O)c(F)c1` [Example 22, 3-(2-fluoro-4-((2-((2-methoxyphenethyl)carbamoyl)thiophen-3-yl)carbamoyl)phenyl) propanoic acid], for which the IC50 was more than 10 µM.

Turning to `COc1ccccc1CCNC(=O)c1sccc1NC(=O)c1cc(Cl)c(O)c(C(C)C)c1` [Example 23, 3-(3-chloro-4-hydroxy-5-isopropylbenzamido)-N-(2-methoxyphenethyl)thiophene-2-carboxamide], the 50% inhibitory concentration (IC50) was more than 10 µM.

Molecule `COc1ccccc1CCNC(=O)c1sccc1NC(=O)c1cc(Cl)c(O)c(Cl)c1` [Example 32, 3-(3,5-dichloro-4-hydroxybenzamido)-N-(2-methoxyphenethyl)thiophene-2-carboxamide] yielded an IC50 not above 1 µM.

The next experiment deals with T1, HSD17B13 enzyme. Put plainly: LC/MS estrone detection assay (conversion of estradiol to estrone by HSD17B13). Format: biochemical. Conditions: substrate 4 μM estradiol, 6 mM NAD+, 30 nM HSD17B13 enzyme, 2 hours at 26.5° C. As to the method: The liquid chromatography/mass spectrometry (LC/MS) estrone detection assay monitors the conversion of estradiol to estrone by HSD17B13. This assay was performed in a 96 wp format (Eppendorf deep well Plate 96/500) in an 80 μl reaction volume containing: 4 μM estradiol (E2; Cayman; Ser. No. 10/006,315); 6 mM NAD^+ (Sigma; #N0623), and 30 nM HSD17B13 enzyme (in-house; E. coli expressed His-tagged, purified, soluble protein), in a buffer containing 1M potassium phosphate buffer pH 7.4 and 0.5% vehicle (DMSO). Reactions were incubated for 2 hours at 26.5° C., and estradiol (E2) conversion to estrone (E1) was quantitated by LC-MS/MS based analyte detection for E1 using LCMS grade reagents. Reactions were terminated by the addition of two volumes of acetonitrile (MeCN; LCMS grade; CAS #75/05/8) containing deuterated (D4)-E1 as internal standard (Clear Synth; #CS-T-54273; 500 ng/mL final concentration). Samples were applied to pre-prepared Bond Elut-C18 extraction cartridges (3 mL; Agilent; Ser. No. 12/102,028), and washed and eluted in MeCN. Eluates were dried under nitrogen and re-suspended in 60% methanol (LCMS grade methanol; CAS #67/56/1) before submission for analysis. Standard curves for E1 were included for quantification. Analysis of samples was undertaken on a XBridge BEH C18 column (Waters; #186003033) using 0.1% Diethyl Amine in MeCN (mobile phase A; DEA CAS #109-89-7) and 0.1% Diethyl Amine in milli-Q water (mobile phase B) in a 3 min gradient up to 25% B. Analytes were detected in negative mode using MRM analysis, with E2 having a RT of 1.85 min and E1 having a RT of 2 min. Activity of the enzyme in the absence of NAD^+, was subtracted from samples to yield values for specific enzyme activity. Enzyme activity in the presence of test samples was expressed as a percentage of the uninhibited enzyme activity, and plotted versus inhibitor concentration. Non-linear regression was performed using the Morrison equation (see below) for tight binding inhibitors on GraphPad Prism software (GraphPad Software, La Jolla, Calif.). All assessments were undertaken in duplicate evaluations which were pooled during the extraction process and subsequently injected as duplicates for LC-MS/MS analysis. Y=Vo*(1−((((Et+X+Q)−(((Et+X+Q)^2)−4*Et*X)^0.5))/(2*Et))) Morrison equation:
Y=Activity in the presence of inhibitor; Vo=Activity in absence of inhibitor; Et=Total enzyme concentration; X=inhibitor concentration; and Q=(Ki*(1+(S/Km))), where Ki is the inhibition constant, Km is the Michaelis constant, and S is the substrate concentration.
`COc1ccccc1CCNC(=O)c1sccc1NC(=O)c1ccc(O)c(Cl)c1` [Example 1, 3-(3-chloro-4-hydroxybenzamido)-N-(2-methoxyphenethyl)thiophene-2-carboxamide] returned a half-maximal inhibitory concentration (IC50) not above 100 nM.

With `CC(C)CNC(=O)c1sccc1NC(=O)c1ccc(O)c(Cl)c1` [Example 2, 3-(3-chloro-4-hydroxybenzamido)-N-isobutylthiophene-2-carboxamide], the half-maximal inhibitory concentration (IC50) is not above 100 nM.

On to `COc1ccccc1CCNC(=O)c1c(NC(=O)c2ccc(O)c(Cl)c2)sc2c1CCN(C)C2` [Example 15, 2-(3-chloro-4-hydroxybenzamido)-N-(2-methoxyphenethyl)-6-methyl-4,5,6,7-tetrahydrothieno[2,3-c]pyridine-3-carboxamide], for which the IC50 was in the range of 100 to 1000 nM.

Molecule `O=C(Nc1cc(Cl)sc1C(=O)NCCc1ccc(F)cc1Cl)c1ccc(O)c(F)c1` [Example 34, 5-chloro-N-(2-chloro-4-fluorophenethyl)-3-(3-fluoro-4-hydroxybenzamido) thiophene-2-carboxamide] displayed a half-inhibitory concentration (IC50) of 100 to 1000 nM.

`O=C(Nc1cc(Cl)sc1C(=O)NC1(c2ccc(F)cc2)CC1)c1cc(F)c(O)c(F)c1` [Example 35, 5-chloro-3-(3,5-difluoro-4-hydroxybenzamido)-N-(1-(4-fluorophenyl)cyclopropyl)thiophene-2-carboxamide] showed an IC50 not above 100 nM.

Consider `O=C(Nc1cc(Cl)sc1C(=O)NCCc1ccc(Cl)cc1Cl)c1ccc(O)c(F)c1` [Example 36, 5-chloro-N-(2,4-dichlorophenethy1)-3-(3-fluoro-4-hydroxybenzamido)thiophene-2-carboxamide], for which the IC50 was not above 100 nM.

Regarding `CN1CCN(CCNC(=O)c2sc(Cl)cc2NC(=O)c2ccc(O)c(F)c2)CC1` [Example 37, 5-chloro-3-(3-fluoro-4-hydroxybenzamido)-N-(2-(4-methylpiperazin-1-yl)ethyl)thiophene-2-carboxamide], the half-inhibitory concentration (IC50) lay within 100 to 1000 nM.

For `O=C(Nc1cc(Cl)sc1C(=O)NCCN1CCOCC1)c1ccc(O)c(F)c1` [Example 38, 5-chloro-3-(3-fluoro-4-hydroxybenzamido)-N-(2-morpholinoethyl)thiophene-2-carboxamide], the IC50 is not above 100 nM.

Molecule `O=C(Nc1cc(Cl)sc1C(=O)NCCc1ccc(F)cc1F)c1ccc(O)c(F)c1` [Example 39, 5-chloro-N-(2,4-difluorophenethyl)-3-(3-fluoro-4-hydroxybenzamido)thiophene-2-carboxamide] registered an IC50 not above 100 nM.

`O=C(Nc1sc(Cl)cc1C(=O)NCCc1ccccc1OC(F)(F)F)c1ccc(O)c(Cl)c1` [Example 40, 5-chloro-2-(3-chloro-4-hydroxybenzamido)-N-(2-(trifluoromethoxy)phenethyl)thiophene-3-carboxamide]: the half-inhibitory concentration (IC50) was not above 100 nM.

The molecule `O=C(Nc1sc(Cl)cc1C(=O)NCCN1CCOCC1)c1ccc(O)c(F)c1` [Example 41, 5-chloro-2-(3-fluoro-4-hydroxybenzamido)-N-(2-morpholinoethyl)thiophene-3-carboxamide.] had a 50% inhibitory concentration (IC50) of 100 to 1000 nM.

In turn, `CN1CCN(CCNC(=O)c2cc(Cl)sc2NC(=O)c2ccc(O)c(F)c2)CC1` [Example 42, 5-chloro-2-(3-fluoro-4-hydroxybenzamido)-N-(2-(4-methylpiperazin-1-yl)ethyl)thiophene-3-carboxamide] displayed a half-maximal inhibitory concentration (IC50) of 1000 to 10000 nM.

Molecule `O=C(Nc1sc(Cl)cc1C(=O)NCCc1ccccc1F)c1ccc(O)c(F)c1` [Example 43, 5-chloro-2-(3-fluoro-4-hydroxybenzamido)-N-(2-fluorophenethyl)thiophene-3-carboxamide] registered an IC50 not above 100 nM.

`O=C(Nc1cc(Cl)sc1C(=O)NCCc1ccccc1C(F)(F)F)c1cc(F)c(O)c(F)c1` [Example 44, 5-chloro-3-(3,5-difluoro-4-hydroxybenzamido)-N-(2-(trifluoromethyl)phenethyl) thiophene-2-carboxamide] registered an IC50 not above 100 nM.

The molecule `O=C(Nc1cc(Cl)sc1C(=O)NCCc1ccccc1C(F)(F)F)c1ccc(O)c(Cl)c1` [Example 45, 5-chloro-3-(3-chloro-4-hydroxybenzamido)-N-(2-(trifluoromethyl)phenethyl) thiophene-2-carboxamide] came in with an IC50 not above 100 nM.

Turning to `O=C(Nc1sc(Cl)cc1C(=O)NCCc1ccccc1OC(F)(F)F)c1ccc(O)c(F)c1` [Example 46, 5-chloro-2-(3-fluoro-4-hydroxybenzamido)-N-(2-(trifluoromethoxy)phenethyl) thiophene-3-carboxamide], the concentration for half-maximal inhibition (IC50) is not above 100 nM.

Molecule `CC(C)(C)CCNC(=O)c1sccc1NC(=O)c1cc(F)c(O)c(Cl)c1` [Example 47, 3-(3-chloro-5-fluoro-4-hydroxybenzamido)-N-(3,3-dimethylbutyl)thiophene-2-carboxamide] yielded a half-maximal inhibitory concentration (IC50) not above 100 nM.

Molecule `O=C(Nc1ccsc1C(=O)N[C@H](CO)c1ccccc1)c1ccc(O)c(Cl)c1` [Example 48, (S)-3-(3-chloro-4-hydroxybenzamido)-N-(2-hydroxy-1-phenylethyl) thiophene-2-carboxamide] showed a concentration for half-maximal inhibition (IC50) of 100 to 1000 nM.

Regarding `O=C(Nc1ccsc1C(=O)N[C@@H](CO)c1ccccc1)c1ccc(O)c(Cl)c1` [Example 49, (R)-3-(3-chloro-4-hydroxybenzamido)-N-(2-hydroxy-1-phenylethyl)thiophene-2-carboxamide], the half-maximal inhibitory concentration (IC50) is not above 100 nM.
